Data as given in US20220090083A1, “TARGETING EGLN1 IN CANCER” (THE BROAD INSTITUTE, INC., priority 2018, published 2022).

Legend:
HIF1A = assay: Immunoblot of HIF1A levels after inhibitor treatment; assay type: cell-based, human
ES2 [1] = assay: CellTiter-Glo viability assay, ES2; assay type: cell-based, human; details: for IC50: Homo sapiens, ES-2, ES2, read-out: IC50 cellular viability (CellTiter-Glo)
Procedure: (§1) CellTiter-Glo (CTG) viability assays were performed per the manufacturer's instructions. Briefly, 5,000-10,000 cells were seeded per well in a 96 well plate then treated with either DMSO or EGLN1 inhibitor in doses indicated. […] Data presented are the average of three technical replicates.

tumors formed from ES2 = assay: Microdevice delivery into ES2 tumors, immunohistochemistry; assay type: in vivo, mice; details: ES2 (HIF1A WT) tumors, local microdevice delivery, 48 hours
Procedure: (§2) Female Athymic^Nu/Nu mice (8-10 weeks old) were used, were obtained from Jackson Laboratories and had access to food and water in appropriate housing conditions. All animal procedures performed at the Broad Institute were approved by the Institutional Animal Care and Use Committee (IACUC) and according to institutional regulations.
(§3) Devices were manufactured as previously described (42). Briefly, microscale devices at diameter […] and length 3 mm were manufactured and pure powder compounds were formulated in 50% PEG. Mice were subcutaneously delivered ovarian cancer cells and tumors were allowed to grow to 1 cm^2. Mice were anesthetized during implantation using 1% isoflurane. A 19-guage spinal biopsy needle (Angiotech) was inserted into the tumor and served as the location for the device to be implanted.
(§4) Immunohistochemistry was performed on 4 μm serial sections from formalin-fixed, paraffin-embedded (FFPE) tumor tissues. The samples were deparaffinized, rehydrated, and pretreated for antigen retrieval by microwave treatment. Immunostaining was done using cell proliferation marker Ki67 and cleaved caspase 3 (CCE) at the Koch Institute Microscopy Core Facility.
(§5) By inserting this microdevice directly into the tumor, the effect of FG-4592, Bay 85-3934 and VH298 in tumors was assessed in vivo. Specifically, ES2 cells were implanted with intact HIF1A (ES2) or HIF1A knockout (ES2 HIF1A KO) in immunodeficient mice and the tumors were allowed to grow to 1 cm^2 before implanting a microdevice containing the EGLN1 inhibitor FG-4592 and VHL inhibitor VH298. Following implantation, the tumors were collected after 48 hours and the tumors were sectioned and stained for proliferation with an antibody against Ki-67, a cellular marker for proliferating cells or Cleaved Caspase-3, a cellular marker for apoptosis.

TOV112D [2] = assay: CFSE proliferation by flow cytometry, TOV112D; assay type: cell-based, human; details: increasing concentration, 48 hours
Procedure: (§6) Flow cytometry was performed at the Broad Institute Flow Cytometry core using CFSE (5(6)-Carboxyfluorescein N-hydroxysuccinimidyl ester)—Cell Labeling Kit (Abcam ab113853) to label dividing cells with CFSE and analyzed on FL-1 Excitation(max) 492 nm, Emission(max) 517 nm. Apoptosis was detected using PE Annexin V Apoptosis Detection Kit 1 (BD Biosciences 559763). Dual labeling Annexin V with 7-Amino-Actinomycin (7-AAD) allowed quantification of apoptosis. Data are presented as the average of two technical replicates and are representative of three independent experiments. Data were analyzed using FlowJo data analysis.

OVCAR4 = assay: Annexin V apoptosis by flow cytometry, OVCAR4; assay type: cell-based, human; details: OVCAR4, 40 μM, 48 hours
Procedure: as §6, with “Apoptosis was detected using PE Annexin V Apoptosis Detection Kit 1 (BD Biosciences 559763).” left out

[3] = tested on: not EGLN1-dependent cell lines; assay: Colony formation assay, not EGLN1-dependent cell lines; assay type: cell-based, human
From the text: (§8) Media and drug were refreshed every 3-4 days for 10 days. Cells were fixed on the plate with 10% neutral buffered formalin (Thermo Fisher Scientific) and stained with 0.1% crystal violet in 10% ethanol. After plates were washed and dried, dye was extracted using 10% acetic acid. Absorbance of extracted dye samples at 595 nm was quantified using a Molecular Devices SpectraMax M5 Plate Reader. […] Data are representative of three independent experiments.

OVISE HIF1A knockout = assay: Proliferation assay, OVISE HIF1A knockout cells; assay type: cell-based, human; details: 10 uM and 20 uM
From the text: (§7) Data are representative of two independent experiments.
However, such depletion of HIF1A rescued EGLN1-sensitivity to FG-4592 in ES2 (FIG. 5C) and OVISE (FIG. 5D) (p<0.05) cell lines.

ES2 [4] = assay: Long term proliferation assay, ES2; assay type: cell-based, human; details: for proliferation: ES2 control sgRNA cells; for long term proliferation: ES2
From the text: (§9) Data presented are the average of three technical replicate wells when available, excluding wells where there were no live cells to passage. Data are representative of two independent experiments.

ES2 [5] = assay: Annexin V apoptosis by flow cytometry, ES2; assay type: cell-based, human; details: ES2, 40 μM, 48 hours
Procedure: as §6, with “Apoptosis was detected using PE Annexin V Apoptosis Detection Kit 1 (BD Biosciences 559763).” left out

[6] = tested on: tumors formed from ES2 with HIF1A KO; assay: Microdevice delivery into ES2 HIF1A KO tumors, immunohistochemistry; assay type: in vivo, mice; details: local microdevice delivery, 48 hours
Procedure: as §2, §3, §4, §5

[7] = tested on: EGLN1-dependent cell lines; assay: Colony formation assay, EGLN1-dependent cell lines; assay type: cell-based, human
From the text: as §8

HIF1A activity = assay: Hypoxia Response Element (HRE) luciferase reporter; assay type: cell-based, human; details: 48 hours post-treatment, increasing dose
Procedure: The Hypoxia Response Element (HRE) was designed based on previous publications (18, 19) and was cloned with a luciferase reporter. The construct was then stably transfected to EGLN1 dependent and independent cell lines. Following transfection cells were treated with EGLN1 inhibitor for up to 6 days and luciferase activity was measured as a readout of HIF1A activity.

JHOC5 = assay: Long term proliferation assay, JHOC5; assay type: cell-based, human; details: JHOC5, dose-dependent
From the text: as §7

TOV112D [8] = assay: CellTiter-Glo viability assay, TOV112D; assay type: cell-based, human; details: 48 hours, increasing dose
Procedure: as §1, with “replicates. Data are representative of three independent experiments.” for “replicates.”

OVISE [9] = assay: Annexin V apoptosis by flow cytometry, OVISE; assay type: cell-based, human; details: 40 μM, 48 hours
Procedure: as §6, with “Apoptosis was detected using PE Annexin V Apoptosis Detection Kit 1 (BD Biosciences 559763).” left out

ES2 HIF1A knockout = assay: Proliferation assay, ES2 HIF1A knockout cells; assay type: cell-based, human
From the text: as §9

[10] = tested on: sensitive cell lines (EGLN1-dependent); details: up to 30 days, p<0.01
Procedure: Non-Cas9 expressing cells were plated on a 12 well or 6 well plate in triplicate with varying concentrations of FG-4592. Every 3-4 days cells were trypsinized, counted using Nexcelom Cellometer, and reseeded at equal densities with the same concentrations of FG-4592, IOX2, BAY85-3934 or VH298. Data presented are the average of three technical replicate wells when available, excluding wells where there were no live cells to passage.

TOV21G = assay: Long term proliferation assay, TOV21G; assay type: cell-based, human; details: dose-dependent
From the text: as §7

EGLN1-dependent cells = assay: CellTiter-Glo viability assay over 5 days; assay type: cell-based, human; details: treated over 5 days
Procedure: CellTiter-Glo (CTG) viability assays were performed per the manufacturer's instructions. Briefly, 5,000-10,000 cells were seeded per well in a 96 well plate then treated with either DMSO or EGLN1 inhibitor in doses indicated. Following 3-6 days treatment (retreated at day 4) CTG compound was added and viability was measured. Data presented are the average of three technical replicates.

TOV112D [11] = assay: Colony formation assay in hypoxia, TOV112D; assay type: cell-based, human; details: 5% oxygen
From the text: Data are representative of three independent experiments.

[12] = tested on: EGLN1-dependent cell lines OVTOKO, OVISE and ES2; details: hypoxia (5% oxygen) and normoxia
Procedure: Cells were plated at a low density (250-1000 cells/well) with varying concentrations of FG-4592 (Selleck) on 24 well plates. Media and drug were refreshed every 3-4 days for 10 days. Cells were fixed on the plate with 10% neutral buffered formalin (Thermo Fisher Scientific) and stained with 0.1% crystal violet in 10% ethanol. After plates were washed and dried, dye was extracted using 10% acetic acid. Absorbance of extracted dye samples at 595 nm was quantified using a Molecular Devices SpectraMax M5 Plate Reader. […] Data are representative of three independent experiments.
To test this hypothesis, colony-forming formation assays were performed in the context of normal culture conditions (normoxia) or in a hypoxic incubator at 5% oxygen (hypoxia).

TOV112D [13] = assay: Annexin V apoptosis by flow cytometry, TOV112D; assay type: cell-based, human; details: 40 μM, 48 hours
Procedure: as §6, with “Apoptosis was detected using PE Annexin V Apoptosis Detection Kit 1 (BD Biosciences 559763).” left out

OVISE [14] = assay: Long term proliferation assay, OVISE; assay type: cell-based, human; details: for long term proliferation: OVISE, dose-dependent
From the text: as §9

ES2 [15] = assay: CFSE proliferation by flow cytometry, ES2; assay type: cell-based, human; details: ES2, increasing concentration, 48 hours
Procedure: as §6

OVTOKO = assay: Long term proliferation assay, OVTOKO; assay type: cell-based, human; details: dose-dependent
From the text: as §7

TOV112D [16] = assay: Long term proliferation assay, TOV112D; assay type: cell-based, human
From the text: as §7

Compound	HIF1A levels (immunoblot) (HIF1A; ES2 cells)	HIF1A levels (immunoblot) (HIF1A; TOV112D cells)	IC50 (ES2 [1])	tumor cell apoptosis (Cleaved Caspase-3 immunostaining) (tumors formed from ES2)	tumor cell proliferation (Ki-67 immunostaining) (tumors formed from ES2)	colony formation [3]	tumor cell apoptosis (Cleaved Caspase-3 immunostaining) [6]	tumor cell proliferation (Ki-67 immunostaining) [6]	colony formation [7]	viability (CTG) (EGLN1-dependent cells)	long term proliferation (ES2 [4])	long term proliferation (OVTOKO)	long term proliferation (OVISE [14])	further results
O=c1c(-n2ccnn2)c[nH]n1-c1cc(N2CCOCC2)ncn1 [Molidustat]	increased HIF1A levels in a dose-dependent manner	increased HIF1A levels in a dose-dependent manner	40 to 50 µM	–	–	–	–	–	–	–	–	–	–	–
Cc1nc(C(=O)NCC(=O)O)c(O)c2ccc(Oc3ccccc3)cc12 [FG-4592]	increased HIF1A levels in a dose-dependent manner	increased HIF1A levels in a dose-dependent manner	40 to 50 µM	increased apoptosis	dramatic reduction in proliferating cells	no effect	no change	no change	reduced colony formation	reduced viability in a dose-dependent manner	–	–	–	cell proliferation (CFSE stain, flow cytometry) (TOV112D [2]): did not reduce cell proliferation; apoptosis (Annexin V stain) (OVCAR4): not increasing apoptosis; proliferation (OVISE HIF1A knockout): resistant to EGLN1 inhibition; proliferation (ES2 [4]; 10 uM and 20 uM): reduced proliferation of control cells; apoptosis (Annexin V stain) (ES2 [5]): increased apoptosis; HIF1A activity (HRE luciferase reporter) (HIF1A activity): increased in both EGLN1-dependent cell lines and cell lines not dependent on EGLN1; long term proliferation (JHOC5): reduced long term proliferation; cell viability (CellTiter-Glo) (TOV112D [8]): no effect; apoptosis (Annexin V stain) (OVISE [9]): increased apoptosis; proliferation (ES2 HIF1A knockout; 10 uM and 20 uM): resistant to EGLN1 inhibition; long term proliferation [10]: significantly reduced long term proliferation; long term proliferation (TOV21G): reduced the long term proliferation; colony formation, sensitivity to inhibitor (TOV112D [11]): Increased sensitivity to EGLN1 inhibition was not observed; colony formation, sensitivity to inhibitor [12]: sensitive; apoptosis (Annexin V stain) (TOV112D [13]): not increasing apoptosis; cell viability (CellTiter-Glo) (ES2 [1]; ES2, 48 hours, increasing dose): reduced viability; proliferation (OVISE [14]; OVISE control sgRNA cells, 10 uM and 20 uM): reduced proliferation of control cells; cell proliferation (CFSE stain, flow cytometry) (ES2 [15]): reduced cell proliferation
COc1cccc2c1C(=O)c1c(O)c3c(c(O)c1C2=O)C[C@@](O)(C(=O)CO)C[C@@H]3O[C@H]1C[C@H](N)[C@H](O)[C@H](C)O1 [doxorubicin]	–	–	–	increased apoptosis	reduced proliferation	–	increased apoptosis	reduced proliferation	–	–	–	–	–	–
Cc1ncsc1-c1ccc(CNC(=O)[C@@H]2C[C@@H](O)CN2C(=O)[C@@H](NC(=O)C2(C#N)CC2)C(C)(C)C)cc1 [VH298]	increased HIF1A levels in a dose-dependent manner	–	–	increased apoptosis	reduction of proliferating cells	–	dependent on intact HIF1A	dependent on intact HIF1A	–	–	substantially decreased cell proliferation	reduced long term proliferation	reduced long term proliferation	proliferation (ES2 [4]; 100 uM): significantly reduced proliferation of control cells; proliferation (ES2 HIF1A knockout; 100 uM): resistant to VHL1 inhibition; proliferation (TOV112D [16]): slightly decreased proliferation
O=C(O)CNC(=O)c1nc(Cl)c2ccccc2c1O [FG-2216]	–	–	–	–	–	–	–	–	–	–	–	–	–	sensitivity of ES2 to EGLN1 inhibitors (viability) (ES2 [1]; ES2, FIG. 11D): showed sensitivity
O=C(O)CNC(=O)c1c(O)c2ccccc2n(Cc2ccccc2)c1=O [IOX2]	–	–	–	–	–	no effect	–	–	reduced colony formation	reduced viability in a dose-dependent manner	reduced long term proliferation	reduced long term proliferation	reduced long term proliferation	–
